# Measurements published in publication PMC12736958 (Pharmaceutics, 2025).
# “And” between values parts separate entries of the source, which are not always exact repeats. Equal values may be shown once.
# Assays:
# [1] = cytotoxicity assay (CCK-8 cell viability); assay type: cell-based, canine; details: dog, MDCK cells, pH 7.4, MDCK cells, 4 h treatment, read-out: IC50 (cytotoxicity, Cur-equivalent)
# Protocol: (§1) Madin-Darby Canine Kidney (MDCK) cells were seeded in 96-well plates (1 × 10^5 cells/well) and cultured for 24 h at 37 °C in complete DMEM (10% FBS, 1% penicillin–streptomycin) under 5% CO2. Cells were treated for 4 h with 100 µL of complete DMEM media (pH 7.4) containing crystalline Cur, amorphous Cur, binary Cur/P188 ASD (1:8, w/w), or ternary Cur/P188/TW80 or Cur/P188/SLS ASDs (1:8:1, w/w/w), at Cur-equivalent concentrations of 0 (vehicle), 2, 10, 25, 50, 100, and 200 μg/mL. After treatment, cells were washed three times with PBS (pH 7.4). Cell viability was assessed using a CCK-8 assay: 100 µL of serum-free DMEM and 10 µL of CCK-8 reagent were added to each well, followed by incubation for 2 h. Absorbance was measured at 450 nm using a Multiskan GO microplate reader (Thermo Fisher Scientific, Vantaa, Finland).
# (§2) Cell viability was calculated according to the following equation:Viability (%) = [(As − Aᵦ)/(Ac − Aᵦ)] × 100% where
# (§3) • As is the absorbance of experimental wells (cells + treatment + CCK-8); • Ac is the absorbance of control wells (cells + medium + CCK-8, no drug); • Aᵦ is the absorbance of blank wells (medium + CCK-8, no cells, no drug).
# (§4) All experiments were performed in quintuplicate (n = 5).
# MDCK cells = experiment: cytotoxicity assay (CCK-8 cell viability); assay type: cell-based, canine; details: 4 h treatment
# Protocol: as §1, §2, §3, §4
# [2] = in vivo pharmacokinetic study in rats; set-up: species or system Sprague-Dawley (SD) rats; details: rat; for plasma concentration of Cur, individual animals: Rat1-Rat5
# Protocol: Male Sprague-Dawley (SD) rats (200 ± 20 g) were supplied by SPF Biotechnology Co., Ltd. (Beijing, China) and housed under standard laboratory conditions throughout the study. All animals were housed in a controlled environment (22 ± 2 °C, 55 ± 10% humidity) under a 12/12 h light/dark cycle, with free access to a standard laboratory rodent diet and water. A 12 h fasting period was implemented prior to the experiment, with water permitted ad libitum. All animal procedures were performed in strict accordance with protocols approved by the Biological and Medical Ethics Committee of Minzu University of China.
# After fasting for 12 h (with free access to water), SD rats (n = 25) were randomly divided into five groups (n = 5 per group). Group 1: crystalline Cur (i.v., dissolved in saline with 5% DMSO). Group 2: crystalline Cur (p.o., suspended in 0.5% CMC-Na). Group 3: Cur/P188 ASD (1:8, w/w; p.o.). Group 4: Cur/P188/TW80 ASD (1:8:1, w/w/w; p.o.). Group 5: Cur/P188/SLS ASD (1:8:1, w/w/w; p.o.). Group 1 received the formulation via tail vein injection, while Groups 2–5 were suspended in water (pH 7.0) and administered orally by gavage at a Cur-equivalent dose of 40 mg/kg. Blood samples (0.2 mL) were collected from each rat at 4, 7, 10, 20, and 30 min, and 1, 2, 4, and 24 h post-dosing. Plasma was separated by centrifugation (5000 rpm, 5 min, 4 °C) and stored at −80 °C until analysis.
# Cur was extracted from 50 μL of plasma using 600 μL of ethyl acetate and quantified by LC-MS/MS, with diclofenac sodium (20 μL, 200 ng/mL) serving as the internal standard. Blank plasma was obtained from a separate control group (n = 5) that received water only. Analysis of these blank samples confirmed the absence of significant matrix interference, thereby validating the analytical method.
# Cur quantification in cellular and rat plasma samples was carried out using a SCIEX QTRAP® 5500 LC-MS/MS system coupled with a SCIEX ExionLC^TM AC system (AB SCIEX, Framingham, MA, USA).
# Separation was achieved on an Acquity UPLC® BEH C18 column (100 × 2.1 mm, 1.7 μm; Waters) maintained at 40 °C. The mobile phase consisted of (A) 0.1% formic acid in water and (B) acetonitrile (ACN), delivered at a flow rate of 0.14 mL/min with the following gradient program: 10% B (0–1.0 min), increased to 95% B (1.0–9.0 min), and returned to 10% B (9.0–12.0 min). The injection volume was 5 μL. The retention times were approximately 4.85 min for Cur and 6.70 min for diclofenac sodium, used as the internal standard (IS).
# Mass spectrometric detection was performed using an IonDrive^TM Turbo V ion (SCIEX, Framingham, MA, USA) source operating in negative electrospray ionization (ESI) mode. Quantification was conducted via multiple reaction monitoring (MRM) at m/z 367.1→133.9 for Cur, and m/z 294.1→250.0 for diclofenac sodium (IS). The assay was linear over the concentration range of 2-500 ng/mL (R^2 > 0.999). All data were acquired in triplicate (n = 3) and processed using MultiQuant software version 3.0.2 (AB SCIEX).
# Pharmacokinetic parameters were calculated using non-compartmental analysis with DAS 2.0 software (Boying Corporation, Beijing, China). Data analysis was performed using GraphPad Prism 10.1.2 software. The result is expressed as mean ± standard deviation (SD). For pairwise comparisons between groups, t-tests were conducted. For multiple group comparisons, one-way analysis of variance (ANOVA) was performed, followed by Tukey’s post hoc test for multiple comparisons. Prior to ANOVA, the assumptions of normality and homogeneity of variances were verified using the Shapiro–Wilk test and Bartlett’s test, respectively. p < 0.05 indicates statistically significant differences.
# [3] = male, Sprague-Dawley, plasma, oral (o.p.), 40 mg/kg Cur-equivalent
structure (smiles),measurement,setting,value
"COc1cc(/C=C/C(=O)CC(=O)/C=C/c2ccc(O)c(OC)c2)ccc1O [Crystalline Cur, Curcumin]",IC50 at 4 h,[1],82.2 µg/mL
same,concentrations with negligible toxicity,MDCK cells,≤ 25000 ng/mL
same,Cmax,[2]; [3],2.4 ± 0.4 ng/mL
same,Tmax,[2]; [3],0.2 h
same,half-life,[2]; [3],1.8 ± 0.4 h
same,MRT last,"[2]; male, Sprague-Dawley, plasma, oral (o.p.), 40 mg/kg Cur-equivalent, read-out: MRT(0–24)",6.3 ± 2 h
same,bioavailability,"[2]; male, Sprague-Dawley, plasma, oral, 40 mg/kg, oral 40 mg/kg relative to intravenous administration, read-out: F (absolute oral bioavailability)",~1%
same,concentration at 0.12 h,"[2]; male, Sprague-Dawley, plasma, po, 40 mg/kg, oral (o.p.), 40 mg/kg, 0.12 h, Rat1-Rat5, read-out: plasma concentration of Cur, individual animals",2.6 ng/mL
same,concentration at 0.17 h,"[2]; male, Sprague-Dawley, plasma, po, 40 mg/kg, oral (o.p.), 40 mg/kg, 0.17 h, Rat1-Rat5, read-out: plasma concentration of Cur, individual animals",2.8 ng/mL
same,F (absolute oral bioavailability),"[2]; oral 40 mg/kg relative to intravenous administration, 40 mg/kg",0.97%
same,"plasma concentration of Cur, individual animals","[2]; oral (o.p.), 40 mg/kg, 0.07 h",1.7 ng/mL and 1.4 ng/mL (2×) and 0.7 ng/mL and 1.1 ng/mL
same,"plasma concentration of Cur, individual animals","[2]; oral (o.p.), 40 mg/kg, 0.12 h",2.6 ng/mL and 2.1 ng/mL and 1.6 ng/mL and 1.9 ng/mL
same,"plasma concentration of Cur, individual animals","[2]; oral (o.p.), 40 mg/kg, 0.17 h",2.8 ng/mL and 2.5 ng/mL and 2.1 ng/mL and 2.0 ng/mL
same,"plasma concentration of Cur, individual animals","[2]; oral (o.p.), 40 mg/kg, 0.33 h",2.5 ng/mL and 2.1 ng/mL and 2.0 ng/mL and 1.5 ng/mL and 1.0 ng/mL
same,"plasma concentration of Cur, individual animals","[2]; oral (o.p.), 40 mg/kg, 0.5 h",2.2 ng/mL and 1.4 ng/mL and 1.2 ng/mL (2×) and 0.542 ng/mL
same,"plasma concentration of Cur, individual animals","[2]; oral (o.p.), 40 mg/kg, 1 h",1.4 ng/mL and 0.7 ng/mL and 0.845 ng/mL and 0.9 ng/mL and 0.369 ng/mL
same,"plasma concentration of Cur, individual animals","[2]; oral (o.p.), 40 mg/kg, 2 h",0.64 ng/mL and 0.9 ng/mL and 0.5 ng/mL and 0.7 ng/mL and 0.2 ng/mL
same,"plasma concentration of Cur, individual animals","[2]; oral (o.p.), 40 mg/kg, 4 h",0.256 ng/mL and 0.433 ng/mL and 0.228 ng/mL and 0.35 ng/mL and 0.125 ng/mL
same,"plasma concentration of Cur, individual animals","[2]; oral (o.p.), 40 mg/kg, 24 h",0.08 ng/mL and 0.056 ng/mL and 0.2 ng/mL and 0.112 ng/mL and 0.1 ng/mL
